Test results as given in patent US20260285850A1, “SUBSTITUTED OXAZOLIDINONES AND IMIDAZOLINONES AS HERBICIDES” (FMC CORPORATION, priority 2023, published 2026).

Key:
Assay type in all cases: in vivo
[1] = system: barnyardgrass (Echinochloa crusgalli); assay: Test B flooded paddy test, visual plant response rating 0-100; conditions: 250 g ai/ha, Flood, applied to paddy water, evaluated after 13 days
How it was run: (§1)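 2-leaf plants; flood 3 cm over soil; compound dosed into paddy water; depth kept constant; greenhouse 13 d; visual scoring vs controls. Dash = no result.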

[2] = system: sedge, umbrella (small-flower umbrella sedge, Cyperus difformis); assay: as above; conditions: 250 g ai/ha, Flood, applied to paddy water, evaluated after 13 days
How it was run: as §1

[3] = system: ducksalad (Heteranthera limosa); assay: as above; conditions: 250 g ai/ha, Flood, applied to paddy water, evaluated after 13 days
How it was run: as §1

rice (Oryza sativa) = assay: as above; conditions: 250 g ai/ha, Flood, applied to paddy water, evaluated after 13 days
How it was run: as §1

[4] = system: green foxtail (Setaria viridis); assay: Test A preemergence soil spray, visual injury rating 0-100; conditions: 10 days
How it was run: (§2)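 Compounds formulated in a non-phytotoxic solvent with surfactant are sprayed onto soil of freshly planted loam-sand pots ahead of emergence, or onto emerged plants 2-10 cm tall. After a 10-day greenhouse period, each species is scored visually for injury against untreated controls.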

soybean (Glycine max) [5] = assay: as above; conditions: 10 days
How it was run: as §2

[6] = system: ryegrass, Italian (italian ryegrass, Lolium multiflorum); assay: as above; conditions: 10 days
How it was run: as §2

[7] = system: oat, wild (wild oat, Avena fatua); assay: as above; conditions: 10 days
How it was run: as §2

[8] = system: blackgrass (Alopecurus myosuroides); assay: as above; conditions: 10 days
How it was run: as §2

[9] = system: palmer (palmer amaranth, palmer pigweed, Amaranthus palmeri); assay: as above; conditions: 10 days
How it was run: as §2

kochia (Bassia scoparia) [10] = assay: as above; conditions: 10 days
How it was run: as §2

corn (Zea mays) [11] = assay: as above; conditions: 10 days
How it was run: as §2

[12] = system: wheat (Triticum aestivum); assay: as above; conditions: 10 days
How it was run: as §2

[13] = system: barnyardgrass (Echinochloa crus-galli); assay: as above; conditions: 10 days
How it was run: as §2

[14] = system: ragweed (common ragweed, Ambrosia artemisiifolia); assay: as above; conditions: 10 days
How it was run: as §2

[15] = system: green foxtail (Setaria viridis); assay: Test A postemergence application, visual injury rating 0-100
How it was run: as §2

[16] = system: galium (catchweed bedstraw, Galium aparine); assay: as above; conditions: Postemergence, 16 g ai/ha, greenhouse 10 days; 0 no effect, 100 complete control
How it was run: as §2

[17] = system: horseweed (Erigeron canadensis); assay: as above
How it was run: as §2

soybean (Glycine max) [18] = assay: as above
How it was run: as §2

[19] = system: ryegrass, Italian (italian ryegrass, Lolium multiflorum); assay: as above
How it was run: as §2

[20] = system: oat, wild (wild oat, Avena fatua); assay: as above
How it was run: as §2

[21] = system: blackgrass (Alopecurus myosuroides); assay: as above
How it was run: as §2

[22] = system: palmer (palmer amaranth, palmer pigweed, Amaranthus palmeri); assay: as above
How it was run: as §2

kochia (Bassia scoparia) [23] = assay: as above
How it was run: as §2

corn (Zea mays) [24] = assay: as above
How it was run: as §2

[25] = system: wheat (Triticum aestivum); assay: as above
How it was run: as §2

[26] = system: barnyardgrass (Echinochloa crus-galli); assay: as above
How it was run: as §2

[27] = system: ragweed (common ragweed, Ambrosia artemisiifolia); assay: as above
How it was run: as §2

[28] = 62 g ai/ha, 0 = no effect, 100 = complete control
[29] = 62 g ai/ha, postemergence, 10 days, 0 = no effect, 100 = complete control
[30] = Postemergence, 16 g ai/ha, greenhouse 10 days, 0 no effect, 100 complete control

SMILES: CC1(C(=O)NC2CC=C(C(=O)OCC(F)F)C2)CN(c2cc(Cl)cc(Cl)c2)C(=O)O1 (stereo not drawn) [Compound 153]
- Plant response rating, Barnyardgrass (0 to 100 scale, 0 is no effect and 100 is complete control) [1]: 0
- Plant response rating, Sedge, Umbrella (0 to 100 scale, 0 is no effect and 100 is complete control) [2]: 0
- Plant response rating, Ducksalad (0 to 100 scale, 0 is no effect and 100 is complete control) [3]: 0
- Plant response rating, Rice (0 to 100 scale, 0 is no effect and 100 is complete control) (rice (Oryza sativa)): 0
- Foxtail, Green plant response rating ([4]; 16 g ai/ha, 0 to 100 scale): 0
- Foxtail, Green plant response rating (0-100) [4, 28]: 0
- Soybean plant response rating (soybean (Glycine max) [5]; 16 g ai/ha, 0 to 100 scale): 0
- Soybean plant response rating (0-100) (soybean (Glycine max) [5]; [28]): 10
- Ryegrass, Italian plant response rating ([6]; 16 g ai/ha, 0 to 100 scale): 0
- Ryegrass, Italian plant response rating (0-100) [6, 28]: 0
- Oat, Wild plant response rating ([7]; 16 g ai/ha, 0 to 100 scale): 0
- Oat, Wild plant response rating (0-100) [7, 28]: 0
- Blackgrass plant response rating ([8]; 16 g ai/ha, 0 to 100 scale): 0
- Blackgrass plant response rating (0-100) [8, 28]: 0
- Pigweed, Palmer plant response rating ([9]; 16 g ai/ha, 0 to 100 scale): 0
- Pigweed, Palmer plant response rating (0-100) [9, 28]: 0
- Kochia plant response rating (kochia (Bassia scoparia) [10]; 16 g ai/ha, 0 to 100 scale): 0
- Kochia plant response rating (0-100) (kochia (Bassia scoparia) [10]; [28]): 0
- Corn plant response rating (corn (Zea mays) [11]; 16 g ai/ha, 0 to 100 scale): 0
- Corn plant response rating (0-100) (corn (Zea mays) [11]; [28]): 0
- Wheat plant response rating ([12]; 16 g ai/ha, 0 to 100 scale): 0
- Wheat plant response rating (0-100) [12, 28]: 0
- Barnyardgrass plant response rating ([13]; 16 g ai/ha, 0 to 100 scale): 0
- Barnyardgrass plant response rating (0-100) [13, 28]: 20
- Ragweed plant response rating ([14]; 16 g ai/ha, 0 to 100 scale): 0
- Ragweed plant response rating (0-100) [14, 28]: 0
- Foxtail, Green plant response rating (0-100) [15, 29]: 0
- Foxtail, Green plant response rating (0 to 100 scale) [15, 30]: 0
- Galium plant response rating (0 to 100 scale) [16]: 0
- Horseweed plant response rating (0-100) [17, 29]: 0
- Horseweed plant response rating (0 to 100 scale) [17, 30]: 20
- Soybean plant response rating (0-100) (soybean (Glycine max) [18]; [29]): 0
- Soybean plant response rating (0 to 100 scale) (soybean (Glycine max) [18]; [30]): 0
- Ryegrass, Italian plant response rating (0-100) [19, 29]: 0
- Ryegrass, Italian plant response rating (0 to 100 scale) [19, 30]: 0
- Oat, Wild plant response rating (0-100) [20, 29]: 0
- Oat, Wild plant response rating (0 to 100 scale) [20, 30]: 0
- Blackgrass plant response rating (0-100) [21, 29]: 90
- Blackgrass plant response rating (0 to 100 scale) [21, 30]: 80
- Pigweed, Palmer plant response rating (0-100) [22, 29]: 0
- Pigweed, Palmer plant response rating (0 to 100 scale) [22, 30]: 0
- Kochia plant response rating (0-100) (kochia (Bassia scoparia) [23]; [29]): 0
- Kochia plant response rating (0 to 100 scale) (kochia (Bassia scoparia) [23]; [30]): 0
- Corn plant response rating (0-100) (corn (Zea mays) [24]; [29]): 0
- Corn plant response rating (0 to 100 scale) (corn (Zea mays) [24]; [30]): 0
- Wheat plant response rating (0-100) [25, 29]: 0
- Wheat plant response rating (0 to 100 scale) [25, 30]: 0
- Barnyardgrass plant response rating (0-100) [26, 29]: 0
- Barnyardgrass plant response rating (0 to 100 scale) [26, 30]: 0
- Ragweed plant response rating (0-100) [27, 29]: 0
- Ragweed plant response rating (0 to 100 scale) [27, 30]: 0
